Assay results reported in article PMC5218480 (PLoS ONE, 2017).

System: MV-4-11 cells
Test: Gene expression microarray analysis (Affymetrix PrimeView) and GSEA
Type: cell-based, human
Parameters: RFU PODN (11730768_x_at) / Fold change /veh PODN (11730768_x_at) / RFU LINC00158 (11744669_a_at) / Fold change /veh LINC00158 (11744669_a_at) / RFU DUSP10 (11751237_a_at) / Fold change /veh DUSP10 (11751237_a_at) / RFU ID3 (11757404_x_at) / Fold change /veh ID3 (11757404_x_at) / RFU PLEKHG5 (11737974_s_at) / Fold change /veh PLEKHG5 (11737974_s_at) / RFU LRRC4B (11730491_at) / Fold change /veh LRRC4B (11730491_at) / RFU GIMAP4 (11747438_a_at) / Fold change /veh GIMAP4 (11747438_a_at) / RFU KRT8 (11758183_x_at) / Fold change /veh KRT8 (11758183_x_at) / RFU CNN1 (11734310_a_at) / Fold change /veh CNN1 (11734310_a_at) / RFU VPS37D (11726825_at) / Fold change /veh VPS37D (11726825_at) / RFU C10orf10 (11716522_x_at) / Fold change /veh C10orf10 (11716522_x_at) / RFU KIR2DL2 /// KIR2DL4 /// KIR2DL5A /// KIR2DL5B /// KIR2DS1 /// KIR2DS2 /// KIR2DS3 /// KIR2DS4 /// KIR3DL3 /// KIR3DL3 /// KIR3DS1 (11738374_at) / Fold change /veh KIR2DL2 /// KIR2DL4 /// KIR2DL5A /// KIR2DL5B /// KIR2DS1 /// KIR2DS2 /// KIR2DS3 /// KIR2DS4 /// KIR3DL3 /// KIR3DL3 /// KIR3DS1 (11738374_at) / RFU C1QL1 (11718748_at) / Fold change /veh C1QL1 (11718748_at) / RFU TMPRSS4 (11747572_a_at) / Fold change /veh TMPRSS4 (11747572_a_at) / RFU HAMP (11756126_x_at) / Fold change /veh HAMP (11756126_x_at) / RFU RNFT2 (11725882_a_at) / Fold change /veh RNFT2 (11725882_a_at) / RFU NR4A2 (11747474_a_at) / Fold change /veh NR4A2 (11747474_a_at) / RFU ABCC12 (11746883_a_at) / Fold change /veh ABCC12 (11746883_a_at) / RFU TMEM136 (11760407_x_at) / Fold change /veh TMEM136 (11760407_x_at) / RFU CLDN22 /// WWC2 (11732394_at) / Fold change /veh CLDN22 /// WWC2 (11732394_at) / RFU HLA-DPB1 (11760878_x_at) / Fold change /veh HLA-DPB1 (11760878_x_at) / RFU SPINT1 (11716480_a_at) / Fold change /veh SPINT1 (11716480_a_at) / RFU GAP43 (11754022_s_at) / Fold change /veh GAP43 (11754022_s_at) / RFU A4GNT (11735810_at) / Fold change /veh A4GNT (11735810_at) / RFU PRB3 (11715151_x_at) / Fold change /veh PRB3 (11715151_x_at) / RFU TUBB4B (11761932_at) / Fold change /veh TUBB4B (11761932_at) / RFU CAPN14 (11732068_a_at) / Fold change /veh CAPN14 (11732068_a_at) / RFU TMCC2 (11721928_a_at) / Fold change /veh TMCC2 (11721928_a_at) / RFU IRGQ (11745062_a_at) / Fold change /veh IRGQ (11745062_a_at) / RFU FAM174B (11720279_a_at) / Fold change /veh FAM174B (11720279_a_at) / RFU TMPRSS4 (11748680_a_at) / Fold change /veh TMPRSS4 (11748680_a_at) / RFU FAM212B (11763350_a_at) / Fold change /veh FAM212B (11763350_a_at) / RFU PLEKHG5 (11743358_a_at) / Fold change /veh PLEKHG5 (11743358_a_at) / RFU ZSCAN30 (11745921_a_at) / Fold change /veh ZSCAN30 (11745921_a_at) / RFU CMKLR1 (11741424_a_at) / Fold change /veh CMKLR1 (11741424_a_at) / RFU LOC101060620 /// MAPK8IP1 (11723275_at) / Fold change /veh LOC101060620 /// MAPK8IP1 (11723275_at) / RFU SPTSSB (11747773_x_at) / Fold change /veh SPTSSB (11747773_x_at) / RFU PRSS12 (11739890_at) / Fold change /veh PRSS12 (11739890_at) / RFU BIN1 (11741810_x_at) / Fold change /veh BIN1 (11741810_x_at) / RFU WNT11 (11732464_a_at) / Fold change /veh WNT11 (11732464_a_at) / RFU C10orf10 (11716521_a_at) / Fold change /veh C10orf10 (11716521_a_at) / RFU C5orf56 (11738089_at) / Fold change /veh C5orf56 (11738089_at) / RFU CYB561 (11721691_x_at) / Fold change /veh CYB561 (11721691_x_at) / RFU ANKRD19P (11752326_a_at) / Fold change /veh ANKRD19P (11752326_a_at) / RFU OR2T12 /// OR2T33 /// OR2T8 (11738714_s_at) / Fold change /veh OR2T12 /// OR2T33 /// OR2T8 (11738714_s_at) / RFU VCAN (11748164_a_at) / Fold change /veh VCAN (11748164_a_at) / RFU JSRP1 (11732532_at) / Fold change /veh JSRP1 (11732532_at) / RFU KRTAP10-11 (11738290_x_at) / Fold change /veh KRTAP10-11 (11738290_x_at) / RFU MYO3A (11730013_a_at) / Fold change /veh MYO3A (11730013_a_at) / RFU EBF3 (11725865_a_at) / Fold change /veh EBF3 (11725865_a_at) / RFU CAMK2N1 (11719241_x_at) / Fold change /veh CAMK2N1 (11719241_x_at) / RFU C5orf56 (11738088_a_at) / Fold change /veh C5orf56 (11738088_a_at) / RFU OLFML3 (11715873_a_at) / Fold change /veh OLFML3 (11715873_a_at) / RFU LOC100653217 /// NTM (11731650_a_at) / Fold change /veh LOC100653217 /// NTM (11731650_a_at) / RFU MAPK11 (11762145_a_at) / Fold change /veh MAPK11 (11762145_a_at) / RFU FIZ1 (11724087_x_at) / Fold change /veh FIZ1 (11724087_x_at) / RFU OASL (11726364_x_at) / Fold change /veh OASL (11726364_x_at) / RFU SOX15 (11748057_x_at) / Fold change /veh SOX15 (11748057_x_at) / RFU CD79A (11719716_a_at) / Fold change /veh CD79A (11719716_a_at) / RFU HIST1H1D (11736915_at) / Fold change /veh HIST1H1D (11736915_at) / RFU CASKIN2 (11723855_a_at) / Fold change /veh CASKIN2 (11723855_a_at) / RFU LOC730098 (11760151_x_at) / Fold change /veh LOC730098 (11760151_x_at) / RFU OR4N2 (11742367_at) / Fold change /veh OR4N2 (11742367_at) / RFU PRRT2 (11749266_a_at) / Fold change /veh PRRT2 (11749266_a_at) / RFU SNX32 (11753110_a_at) / Fold change /veh SNX32 (11753110_a_at) / RFU CDHR5 (11726645_a_at) / Fold change /veh CDHR5 (11726645_a_at) / RFU RCAN1 (11760418_a_at) / Fold change /veh RCAN1 (11760418_a_at) / RFU FAM167A (11723789_a_at) / Fold change /veh FAM167A (11723789_a_at) / RFU FAM26E (11764081_at) / Fold change /veh FAM26E (11764081_at) / RFU ISYNA1 (11749810_s_at) / Fold change /veh ISYNA1 (11749810_s_at) / RFU ACY1 (11761880_at) / Fold change /veh ACY1 (11761880_at) / RFU 11764098_at / Fold change /veh 11764098_at / RFU SAMD14 (11745864_x_at) / Fold change /veh SAMD14 (11745864_x_at) / RFU NPB (11741838_a_at) / Fold change /veh NPB (11741838_a_at) / RFU TMPRSS6 (11731388_a_at) / Fold change /veh TMPRSS6 (11731388_a_at) / RFU KRTAP10-2 (11738614_at) / Fold change /veh KRTAP10-2 (11738614_at) / RFU ARHGAP8 /// PRR5-ARHGAP8 (11727945_x_at) / Fold change /veh ARHGAP8 /// PRR5-ARHGAP8 (11727945_x_at) / RFU KRTAP5-7 /// NADSYN1 (11734609_at) / Fold change /veh KRTAP5-7 /// NADSYN1 (11734609_at) / RFU RASL12 (11751679_a_at) / Fold change /veh RASL12 (11751679_a_at) / RFU CDKN2B (11736163_a_at) / Fold change /veh CDKN2B (11736163_a_at) / RFU PRF1 (11729649_at) / Fold change /veh PRF1 (11729649_at) / RFU, ZNF638 /// ZNF638-IT1 / Fold change vs veh, ZNF638 /// ZNF638-IT1 / RFU, PANK3 / Fold change vs veh, PANK3 / RFU, SH3YL1 / Fold change vs veh, SH3YL1 / RFU, ZEB2 / Fold change vs veh, ZEB2 / RFU, NRIP1 / Fold change vs veh, NRIP1 / RFU, PTTG1IP / Fold change vs veh, PTTG1IP / RFU, CAPN2 / Fold change vs veh, CAPN2 / RFU, MED14 / Fold change vs veh, MED14 / RFU, SNORA58 / Fold change vs veh, SNORA58 / RFU, C1orf63 / Fold change vs veh, C1orf63 / RFU, LRRFIP1 / Fold change vs veh, LRRFIP1 / RFU, NDUFAF7 / Fold change vs veh, NDUFAF7 / RFU, SLC12A2 / Fold change vs veh, SLC12A2 / RFU, IBTK / Fold change vs veh, IBTK / RFU, ESF1 / Fold change vs veh, ESF1 / Fold change vs veh, TMEM50B / RFU, TAOK1 / Fold change vs veh, TAOK1 / RFU, ACBD3 / Fold change vs veh, ACBD3 / RFU, TMA16 / Fold change vs veh, TMA16 / RFU, RWDD3 / Fold change vs veh, RWDD3 / RFU, BCAT1 / Fold change vs veh, BCAT1 / RFU, EDEM3 / Fold change vs veh, EDEM3 / RFU, TMEM33 / Fold change vs veh, TMEM33 / RFU, WDR75 / Fold change vs veh, WDR75 / RFU, AHCTF1 / Fold change vs veh, AHCTF1 / RFU, TFRC / Fold change vs veh, TFRC / RFU, ZDHHC17 / Fold change vs veh, ZDHHC17 / RFU, NOM1 / Fold change vs veh, NOM1 / RFU, ARL8B / Fold change vs veh, ARL8B / RFU, ZBTB11 / Fold change vs veh, ZBTB11 / RFU, TAMM41 / Fold change vs veh, TAMM41 / RFU, KIAA1704 /// LOC100996395 / Fold change vs veh, KIAA1704 /// LOC100996395 / RFU, ING1 / Fold change vs veh, ING1 / RFU, TRMT61B / Fold change vs veh, TRMT61B / RFU, FUBP3 / Fold change vs veh, FUBP3 / RFU, TP53 / Fold change vs veh, TP53 / RFU, TNKS2 / Fold change vs veh, TNKS2 / RFU, ZFP14 / Fold change vs veh, ZFP14 / RFU, ACTR2 / Fold change vs veh, ACTR2 / RFU, PPP3R1 / Fold change vs veh, PPP3R1 / RFU, PIK3R1 / Fold change vs veh, PIK3R1 / RFU, HNRNPA1 / Fold change vs veh, HNRNPA1 / RFU, RNF170 / Fold change vs veh, RNF170 / RFU, ZNF28 / Fold change vs veh, ZNF28 / RFU, RNGTT / Fold change vs veh, RNGTT / RFU, OGT / Fold change vs veh, OGT / RFU, BRD1 / Fold change vs veh, BRD1 / RFU, MARS / Fold change vs veh, MARS / RFU, ZNF655 / Fold change vs veh, ZNF655 / RFU, FAHD1 / Fold change vs veh, FAHD1 / RFU, BDP1 / Fold change vs veh, BDP1 / RFU, LRRCC1 / Fold change vs veh, LRRCC1 / RFU, ARID1A / Fold change vs veh, ARID1A / RFU, ZNF146 / Fold change vs veh, ZNF146 / RFU, ZNF330 / Fold change vs veh, ZNF330 / RFU, GPN3 / Fold change vs veh, GPN3 / RFU, C9orf123 / Fold change vs veh, C9orf123 / RFU, N4BP2L2 / Fold change vs veh, N4BP2L2 / RFU, ARFIP1 / Fold change vs veh, ARFIP1 / RFU, FAM179B / Fold change vs veh, FAM179B / RFU, BCL10 / Fold change vs veh, BCL10 / RFU, UHRF1BP1L / Fold change vs veh, UHRF1BP1L / RFU, BET1 / Fold change vs veh, BET1 / RFU, CNOT2 / Fold change vs veh, CNOT2 / RFU, ZNF268 / Fold change vs veh, ZNF268 / Fold change vs veh, ZNF507 / RFU, DGCR2 / Fold change vs veh, DGCR2 / RFU, WDSUB1 / Fold change vs veh, WDSUB1 / Fold change vs veh, HSP90B1 /// MIR3652 / RFU, ADSS / Fold change vs veh, ADSS / RFU, GK / Fold change vs veh, GK / RFU, ZNF148 / Fold change vs veh, ZNF148 / RFU, TAF9 / Fold change vs veh, TAF9 / RFU, SLC1A5 / Fold change vs veh, SLC1A5 / RFU, SLMO2 / Fold change vs veh, SLMO2 / RFU, ABCC4 / Fold change vs veh, ABCC4 / RFU, LOC101060439 /// RAP1B / Fold change vs veh, LOC101060439 /// RAP1B / RFU, RFX7 / Fold change vs veh, RFX7 / RFU, GTPBP10 / Fold change vs veh, GTPBP10 / RFU, CNEP1R1 / Fold change vs veh, CNEP1R1 / RFU, BIVM-ERCC5 /// ERCC5 / Fold change vs veh, BIVM-ERCC5 /// ERCC5 / RFU, ILF3 / Fold change vs veh, ILF3 / RFU 11762660_at / Fold change /veh 11762660_at / RFU VCAN (11757783_s_at) / Fold change /veh VCAN (11757783_s_at) / RFU DDX43 (11728927_at) / Fold change /veh DDX43 (11728927_at) / RFU KRT8 (11758188_x_at) / Fold change /veh KRT8 (11758188_x_at) / RFU NKD1 (11759106_at) / Fold change /veh NKD1 (11759106_at) / RFU SRD5A1 (11742802_a_at) / Fold change /veh SRD5A1 (11742802_a_at) / RFU TPSAB1 /// TPSB2 (11721975_s_at) / Fold change /veh TPSAB1 /// TPSB2 (11721975_s_at) / RFU GSTM3 (11746129_a_at) / Fold change /veh GSTM3 (11746129_a_at) / RFU IL23R (11737362_x_at) / Fold change /veh IL23R (11737362_x_at) / RFU TMEM51 (11727254_a_at) / Fold change /veh TMEM51 (11727254_a_at) / RFU PIWIL2 (11732686_x_at) / Fold change /veh PIWIL2 (11732686_x_at) / RFU ORM1 (11744905_x_at) / Fold change /veh ORM1 (11744905_x_at) / RFU CCDC152 (11743942_at) / Fold change /veh CCDC152 (11743942_at) / RFU ECM1 (11717891_a_at) / Fold change /veh ECM1 (11717891_a_at) / RFU IL23R (11748794_a_at) / Fold change /veh IL23R (11748794_a_at) / RFU TNFAIP8L3 (11732012_x_at) / Fold change /veh TNFAIP8L3 (11732012_x_at) / RFU MBOAT4 (11741988_at) / Fold change /veh MBOAT4 (11741988_at) / RFU 11764193_at / Fold change /veh 11764193_at / RFU TMEM53 (11763286_at) / Fold change /veh TMEM53 (11763286_at) / RFU MAGEB2 (11727129_at) / Fold change /veh MAGEB2 (11727129_at) / RFU TMEM200A (11744735_a_at) / Fold change /veh TMEM200A (11744735_a_at) / RFU CCDC152 (11751479_a_at) / Fold change /veh CCDC152 (11751479_a_at) / RFU FAM211A (11726209_a_at) / Fold change /veh FAM211A (11726209_a_at) / RFU RGS16 (11746705_a_at) / Fold change /veh RGS16 (11746705_a_at) / RFU VCAN (11755009_s_at) / Fold change /veh VCAN (11755009_s_at) / RFU RHOB (11743442_s_at) / Fold change /veh RHOB (11743442_s_at) / RFU RGS16 (11720943_a_at) / Fold change /veh RGS16 (11720943_a_at) / RFU RGS16 (11720944_at) / Fold change /veh RGS16 (11720944_at) / RFU, VPS4B / Fold change vs veh, VPS4B / RFU, CREB1 / Fold change vs veh, CREB1 / RFU, DNAJC13 / Fold change vs veh, DNAJC13 / RFU, GNAQ / Fold change vs veh, GNAQ / RFU, CDK5R1 / Fold change vs veh, CDK5R1 / RFU, ZRANB3 / Fold change vs veh, ZRANB3 / RFU, CUL4A / Fold change vs veh, CUL4A / RFU, CCNY / Fold change vs veh, CCNY / RFU, UFL1 / Fold change vs veh, UFL1 / RFU, COG3 / Fold change vs veh, COG3 / RFU, DIAPH2 / Fold change vs veh, DIAPH2 / RFU, SKA2 / Fold change vs veh, SKA2 / RFU, AFF3 / Fold change vs veh, AFF3 / RFU, LMF1 / Fold change vs veh, LMF1 / RFU, IPO11 / Fold change vs veh, IPO11 / RFU, DFFB / Fold change vs veh, DFFB / RFU, FOXP1 / Fold change vs veh, FOXP1 / RFU, CARD8 / Fold change vs veh, CARD8 / RFU, STRN3 / Fold change vs veh, STRN3 / RFU, ADK / Fold change vs veh, ADK / RFU, RASSF2 / Fold change vs veh, RASSF2 / RFU, WIPF1 / Fold change vs veh, WIPF1 / RFU, LARP1B / Fold change vs veh, LARP1B / RFU, RASA1 / Fold change vs veh, RASA1 / RFU, RB1 / Fold change vs veh, RB1 / RFU, PPFIA1 / Fold change vs veh, PPFIA1 / RFU, MAT2A / Fold change vs veh, MAT2A / RFU, CCT5 / Fold change vs veh, CCT5 / RFU, WDR92 / Fold change vs veh, WDR92 / RFU, CUX1 / Fold change vs veh, CUX1 / RFU, TTC7A / Fold change vs veh, TTC7A / RFU, TMEM135 / Fold change vs veh, TMEM135 / RFU, DEPTOR / Fold change vs veh, DEPTOR / RFU, CPM / Fold change vs veh, CPM / RFU, DNAJB6 / Fold change vs veh, DNAJB6 / RFU, CACNA2D3 / Fold change vs veh, CACNA2D3 / RFU, DTX4 / Fold change vs veh, DTX4 / RFU, TFCP2 / Fold change vs veh, TFCP2 / RFU, GMCL1 /// GMCL1P1 / Fold change vs veh, GMCL1 /// GMCL1P1 / RFU, AEBP2 / Fold change vs veh, AEBP2 / RFU, SNHG1 /// SNORD22 /// SNORD25 /// SNORD26 /// SNORD27 /// SNORD28 /// SNORD29 /// SNORD31 / Fold change vs veh, SNHG1 /// SNORD22 /// SNORD25 /// SNORD26 /// SNORD27 /// SNORD28 /// SNORD29 /// SNORD31 / Fold change (Aza/veh), C12orf56 (ProbeSet 11735607_a_at) / Fold change (ACY-1035/veh), C12orf56 (ProbeSet 11735607_a_at) / Fold change (Aza/veh), FGFR1OP (ProbeSet 11751329_s_at) / Fold change (ACY-1035/veh), FGFR1OP (ProbeSet 11751329_s_at) / Fold change (Aza/veh), VPS36 (ProbeSet 11739960_a_at) / Fold change (ACY-1035/veh), VPS36 (ProbeSet 11739960_a_at) / RFU SYPL1 (11715823_x_at) / Fold change /veh SYPL1 (11715823_x_at) / RFU IGFBP7 (11715501_s_at) / Fold change /veh IGFBP7 (11715501_s_at) / RFU REEP3 (11722064_at) / Fold change /veh REEP3 (11722064_at) / RFU IGLL1 (11728026_x_at) / Fold change /veh IGLL1 (11728026_x_at): dose or concentration left out as unconfirmed
Settings: ProbeSet 11732370_a_at; LIST D

Structure (SMILES): Nc1ncn([C@@H]2O[C@H](CO)[C@@H](O)[C@H]2O)c(=O)n1 [azacitidine]
- RFU, CUX1: 199.77 RFU
